Assay results: US11413278B2, “Compounds and methods for promoting stress resistance” (priority 2015, dated 2022)
Where two headings read alike, the source gives them in different places.

How the values were obtained:
FOXO3 = FOXO3 siRNA knockdown: dependency for H2O2-resistance; format: cell-based, human; conditions: for FOXO3-dependency for H2O2-resistance, at 10 uM - with H2O2, 1st experiment: experiment 1 (1st); for FOXO3-dependency for H2O2-resistance (experiment 3): with & without H2O2, FOXO3 knockdown in WI-38 cells; for Assay 16: FOXO3-dependency for H2O2-resistance: YES/NO; for Requirement of FOXO3 to promote H2O2-resistance: FOXO3 siRNA, at least 2 of 3 independent experiments
Protocol: For qPCR analysis, WI-38 cells were treated with small molecules (at 10 μM) (biological quadruplicates) for 24 hrs and processed for RNA isolation and reverse transcription (RT) with the Cells-to-Ct Kit (Life Technologies), following manufacturer's instructions. RT products were diluted with H2O and used for qPCR analysis on an ABI 7300 system (Life Technologies) (technical triplicates). Relative expression levels of target genes were normalized to the genes B2M, PPIA and GAPDH. To knock down the expression of FOXO3 or NRF2, WI-38 cells were transfected, using the RNAiMAX reagents (Life Technologies), with siRNA oligos (at 10 nM final concentration, 10 ml culture medium) for FOXO3 (Life Technologies) or NRF2 (Integrated DNA Technologies) on 10-cm petri dishes for 36 hrs, and then detached and aliquoted onto 96-well (for qPCR analysis) or 384-well plates (for H2O2-stress treatment). ˜24 hrs later, small molecules were introduced and incubated with cells for 24 hrs. Cells were then either processed with the Cells-to-Ct Kit to prepare RT products for qPCR analysis or subjected to H2O2 (700 μM) for 3 hrs and assayed for viability. The knockdown efficiency of FOXO3 or NRF2 was checked at 36 hrs post-transfection and at the end as well. […]
Applicants used siRNA to knock down FOXO3 expression by ˜70% in an attempt to identify whether the activation of these genes depends on activity of FOXO3 and/or NRF2. […] We used siRNA to knock down FOXO3 expression by ˜60% to 70% (FIG. 3; see data in Table 6). […] (Given the caveat that FOXO3 was not fully knocked down, partial dependency was scored when the H2O2-resistance capacity was reduced by at least 25% but less than 50% upon siRNA knockdown). At least for Gr-7A and Gr-7C, which are structurally related, the observed FOXO3-dependency for H2O2-resistance is consistent with their strong effects to induce FOXO3 target genes (Tables 1a-1f, Table 6, & Table 15), including SOD2 and GADD45A.

C. elegans = format: in vivo, Caenorhabditis elegans; conditions: in vivo
Protocol: The worms were treated with the small molecules in liquid, with H2O2 (500 μM final concentration) added on day 4 of adulthood, and scored for viability everyday
FUdR was used to block progeny production. The molecules were analyzed in 96-well plates, with 4 wells for each small molecule. Multiple control wells with DMSO (0.2% final concentration) were included. […] Day 1 adults were transferred onto mini-plates, seeded with OP50 bacteria (UV-irradiated, kanamycin-treated) and supplemented with small molecules (˜60 μM final concentration, 0.2% DMSO). Worms were scored every other day. Cumulative survival was analyzed using the STATA software (log-rank test). […] The worms were treated with the small molecules in liquid, with H2O2 (500 μM final concentration) added on day 4 of adulthood, and scored for viability every day.

WI-38 cells [1] = assay: CdCl2 (cadmium) resistance assay; format: cell-based, human; conditions: for fold induction at 10 µM: Homo sapiens, 12 h, normalized ATP measurement; for Assay 4: H2O2- & Cd-resistant / Assay 2: Cadmium-resistant: YES/NO; for Assay 2: Cadmium-resistant: * indicates partial
Outline: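 Resistance to CdCl2 or MMS stress (12 h exposure) was scored in WI-38 fibroblasts pretreated with compound at 0.25–20 μM final, five doses, technical triplicates. MMS plates had compound added 24 h before MMS, after a shift to serum-free DMEM+2% BSA. Significance came from a global variance t-test over two independent runs.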

WI-38 cells [2] = conditions: for Percentage of propidium iodide-positive dead cells (no H2O2 stress treatment), at 10 uM: negative control 0.41% ± 0.23%; for PI cell-death imaging without H2O2 (indicating potential toxicity): Assay 8(k), without H2O2, at 10 uM; for PI-positive dead cells under normal conditions: WI-38, no H2O2, control 0.4±0.2%
Protocol: WI-38 cells were seeded on 384-well plates for 24 hrs and then incubated with small molecules for 24 hrs. […] Images were collected on an INCell Analyzer 2000 (GE) and analyzed with the Developer software.

[3] = Exp. 1, WI-38 cells, read-out: Exp. 1, under Cd2Cl2 stress treatment, at 10 uM (fold change)
[4] = Exp. 2, WI-38 cells, read-out: Exp. 2, under Cd2Cl2 stress treatment, at 10 uM (fold change)
[5] = score in summary of 38 core set hits
[6] = WI-38 cells, 10 μM, both stressors
[7] = 10 uM, YES = resistance reduced by at least 50%, partial = 25% to 50%
[8] = 10 uM, with H2O2, FOXO3 knockdown in WI-38 cells, YES = resistance reduced by at least 50%, partial = 25% to 50%

SMILES | I = FOXO3-dependency for H2O2-resistance (FOXO3; score) | I = FOXO3-dependency for H2O2-resistance (FOXO3; summary score) | L = H2O2-resistance in worms (C. elegans) | N = H2O2-resistance in woms (C. elegans) | fold induction at 10 µM (WI-38 cells [1]; [3]) | fold induction at 10 µM (WI-38 cells [1]; [4]) | A = Cadmium resistant (WI-38 cells [1]; [5]) | A = Cadmium resistant (WI-38 cells [1]; summary score) | C = H2O2- & Cd-resistant (WI-38 cells [1]; summary score) | Percentage of propidium iodide-positive dead cells (no H2O2 stress treatment), at 10 uM (WI-38 cells [2]) | H2O2-resistance assay, 1st experiment (C. elegans) | CdCl2-resistant (WI-38 cells [1]) | H2O2- & CdCl2-resistant (WI-38 cells [1]) | CdCl2-resistant (WI-38 cells [1]; WI-38 cells, 10 μM) | H2O2- & CdCl2-resistant (WI-38 cells [1]; [6]) | Assay 4: H2O2- & Cd-resistant (WI-38 cells [1]) | Assay 2: Cadmium-resistant (WI-38 cells [1]) | also measured
CCc1ccc(Oc2nc3ccccn3c(=O)c2/C=C(\C#N)C(=O)NCc2ccco2)cc1 [Gr-5B] | 0 | 0 | 0 | 0 | 1.29 | 1.36 | 0 | 0 | 0 | 0.45% ± 0.15%, |  |  |  |  |  |  |  | 
Cc1ccc(S(=O)(=O)Nc2cccc3cccnc23)cc1 [Gr-3B] | 0 | 0 | 0 | 0 | 2.1 | 2.88 | 0 | 0 | 0 | 0.47% ± 0.20%, | YES; |  |  |  |  |  |  | 
O=C(Nc1cccc(C(F)(F)F)c1)c1ccc([N+](=O)[O-])o1 [Gr-1E] | 0 | 0 | 0 | 0 | 6.69 | 8.82 | 1 | 1 | 1 | 0.71% ± 0.28%, |  | YES | YES | YES | YES | YES | YES | 
O=C(/C=C/c1cn(-c2ccccc2)nc1-c1cccnc1)c1ccccc1 [Gr-6B] | 0 | 0 | 0 | 0 | 5.07 | 2.65 | 1 | 1 | 1 | 0.46% ± 0.25%, |  | YES | YES | YES | YES | YES | YES | 
O=C(NCc1cccnc1)/C(=C\c1ccc(Br)cc1)S(=O)(=O)c1ccccc1 [Gr-7B] | 0 | 0 | 0 | 0 | 0.12 | 0.26 | 0 | 1 | 1 |  | YES; |  |  |  |  | YES | YES | PI cell-death imaging without H2O2 (indicating potential toxicity) (WI-38 cells [2]): YES; PI-positive dead cells under normal conditions (WI-38 cells [2]): 3.6%±0.7%
O=C(c1ccc([N+](=O)[O-])o1)N1CCc2ccccc21 [O13] | 0 | 0 | 0 | 0 | 1.27 | 1.55 | 0 | 1 | 1 | 0.69% ± 0.12%, | YES; |  |  |  |  | YES | YES | 
Oc1ccccc1-c1noc(-c2ccccc2O)n1 [O27] | 0 | 0 |  |  |  |  | 1 | 1 | 1 | 0.50% ± 0.17%, |  | YES | YES | YES | YES | YES | YES | 
O=C(Nc1ccc(Cl)c(Cl)c1)c1ccc([N+](=O)[O-])o1 [Gr-1G] | 0 | 0 | 0 | 0 | 3.81 | 7.21 | 1 | 1 | 1 |  |  | YES | YES | YES | YES | YES | YES | PI cell-death imaging without H2O2 (indicating potential toxicity) (WI-38 cells [2]): YES; PI-positive dead cells under normal conditions (WI-38 cells [2]): 7.1%±1.1%
O=C(NCc1cccnc1)/C(=C/c1ccc(-c2ccc(Cl)cc2)o1)S(=O)(=O)c1ccccc1 [Gr-7C] | 1 | 1 | 0 | 0 | 1.31 | 0.97 | 0 | 1 | 1 |  |  |  |  |  |  | YES | YES | FOXO3-dependency for H2O2-resistance, at 10 uM - with H2O2, 1st experiment (FOXO3; 10 uM, with H2O2): 1st, YES;; FOXO3-dependency for H2O2-resistance, at 10 uM (experiment 3) - with & without H2O2 (FOXO3; 10 uM): Partial; FOXO3-dependency for H2O2-resistance (experiment 3) (FOXO3; [7]): Partial; FOXO3-dependency for H2O2-resistance, 1st experiment (FOXO3; [8]): YES;; Assay 16: FOXO3-dependency for H2O2-resistance (FOXO3; 10 uM): YES; Requirement of FOXO3 to promote H2O2-resistance (FOXO3): required FOXO3
O=C(NCc1cccnc1)/C(=C\c1cccc(Oc2ccccc2)c1)S(=O)(=O)c1ccccc1 [Gr-7A] | 1 | 1 | 1 | 1 | 0.07 | 0.14 | 0 | 1 | 1 |  | YES; |  |  |  |  | YES | YES | FOXO3-dependency for H2O2-resistance, at 10 uM - with H2O2, 1st experiment (FOXO3; 10 uM, with H2O2): 1st, partial;; FOXO3-dependency for H2O2-resistance, at 10 uM - with H2O2, 2nd experiment (FOXO3; 10 uM, experiment 2 (2nd), with H2O2): 2nd, YES.; FOXO3-dependency for H2O2-resistance, at 10 uM (experiment 3) - with & without H2O2 (FOXO3; 10 uM): YES; FOXO3-dependency for H2O2-resistance (experiment 3) (FOXO3; [7]): YES; FOXO3-dependency for H2O2-resistance, 1st experiment (FOXO3; [8]): partial;; FOXO3-dependency for H2O2-resistance, 2nd experiment (FOXO3; [8]): YES.; Assay 16: FOXO3-dependency for H2O2-resistance (FOXO3; 10 uM): YES; Requirement of FOXO3 to promote H2O2-resistance (FOXO3): required FOXO3; Protection of C. elegans from hydrogen peroxide (C. elegans): could protect C. elegans from hydrogen peroxide
